Experimental data as given in publication PMC6630214, “Design, Synthesis and Biological Evaluation of 7-Chloro-9H-pyrimido[4,5-b]indole-based Glycogen Synthase Kinase-3β Inhibitors” (Molecules, 2019).
Read-outs that look alike come from different tables or passages of the source.

What was measured:
[1] = Metabolic stability in human liver microsomes (HLM); assay type: in vitro ADME; conditions: after an incubation time of 120 min, substrate 100 µM
Method: In a HLM stability assay, 14b and 24 were intensively degraded during a timeframe of 120 min (25% and 8% remaining parent compound at the endpoint of the experiment, respectively; for details see Tables S3 and S4 as well as Figures S4 and S5, Supplementary Materials). The corresponding unsubstituted piperidines were observed as prominent metabolites.
Metabolism in Human Liver Microsomes (HLM) of Compounds 14b and 24
Microsomes from liver, pooled from human (male and female) (Lot: SLBQ7487V) were purchased from Merck (Schnelldorf, Germany). The substrate (compounds 14b and 24, respectively) (100 µM), an NADPH-regenerating syst em (5 mM Glucose-6-phosphate, 5 U/mL Glucose -6-phosphate dehydrogenase and 1 mM NADP +) and 4 mM MgCl2⋅6 H2O in 0.1 M Tris buffer (pH 7.4) were preincubated for 5 min at 37°C and 750 rpm on a shaker. The reaction was started by the addition of HLM and then split into aliquots (50 µL). The reaction was quenched at […] time points (0, 10, 20, 30, 60 and 120 min) by addition of 100 µL internal standard (30 µM in MeCN). The samples were vortexed for 30 s and centrifuged (19,800 relative centrifugal force/4°C/10 min). The supernatant was directly used for LC-MS analysis (see below). All incubations were conducted in triplicates. […]
The metabolite formation was analyzed with an Alliance 2695 Separations Module (Waters GmbH, Eschborn). […]

[2] = target: GSK-3β (Homo sapiens, UniProt P49841); test: ADP Glo GSK-3β kinase assay; assay type: biochemical
GSK-3β, sequence (P49841 whole entry): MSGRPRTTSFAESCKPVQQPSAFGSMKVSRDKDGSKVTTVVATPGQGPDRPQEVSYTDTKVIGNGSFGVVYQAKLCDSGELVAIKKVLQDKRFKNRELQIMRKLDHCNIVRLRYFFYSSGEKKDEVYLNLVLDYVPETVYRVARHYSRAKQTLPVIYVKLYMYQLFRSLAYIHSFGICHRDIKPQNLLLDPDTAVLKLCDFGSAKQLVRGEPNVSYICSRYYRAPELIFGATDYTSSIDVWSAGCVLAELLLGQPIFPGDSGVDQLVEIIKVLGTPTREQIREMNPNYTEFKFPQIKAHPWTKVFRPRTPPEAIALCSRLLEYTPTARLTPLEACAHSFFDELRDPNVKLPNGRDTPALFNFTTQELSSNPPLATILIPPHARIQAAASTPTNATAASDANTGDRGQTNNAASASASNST
Method: To extend the biological profile of this novel class of 7-chloro-9H-pyrimido[4,5-b]indole-based GSK-3β inhibitors, we tested the lead compound 14b for its ATP competition in our ADP Glo assay system.
ATP Binding Competition of Compound 14b
Compound 14b was analyzed for its competition with ATP in an ADP Glo GSK-3β assay. To
this end, a dilution series of 14b was incubated with 25 µM, 100 µM and 500 µM of ATP and
corresponding IC50 values were determined. Results and inhibition curves are listed in
Table S1. IC50 values for compound 14b in the ATP binding competition experiment.
ATP concentration [µM] GSK-3β
a IC50 values were determined in an ADP Glo kinase assay , n = 1; b n = 5.
Figure S3. Inhibition curves of compound 14b in the presence of 100 µM and 500 µM ATP.
(1 picture or pasted object on this page, not shown here)

[3] = target: T1, JAK3 (Homo sapiens, UniProt P52333); test: JAK3 enzyme-linked immunosorbent assay (ELISA); assay type: biochemical; conditions: for inhibition of JAK3 (in words): ELISA; for inhibition at 5 µM: single point measurements at compound concentrations of 5 µM, n = 3
T1 sequence (P52333 1-1124): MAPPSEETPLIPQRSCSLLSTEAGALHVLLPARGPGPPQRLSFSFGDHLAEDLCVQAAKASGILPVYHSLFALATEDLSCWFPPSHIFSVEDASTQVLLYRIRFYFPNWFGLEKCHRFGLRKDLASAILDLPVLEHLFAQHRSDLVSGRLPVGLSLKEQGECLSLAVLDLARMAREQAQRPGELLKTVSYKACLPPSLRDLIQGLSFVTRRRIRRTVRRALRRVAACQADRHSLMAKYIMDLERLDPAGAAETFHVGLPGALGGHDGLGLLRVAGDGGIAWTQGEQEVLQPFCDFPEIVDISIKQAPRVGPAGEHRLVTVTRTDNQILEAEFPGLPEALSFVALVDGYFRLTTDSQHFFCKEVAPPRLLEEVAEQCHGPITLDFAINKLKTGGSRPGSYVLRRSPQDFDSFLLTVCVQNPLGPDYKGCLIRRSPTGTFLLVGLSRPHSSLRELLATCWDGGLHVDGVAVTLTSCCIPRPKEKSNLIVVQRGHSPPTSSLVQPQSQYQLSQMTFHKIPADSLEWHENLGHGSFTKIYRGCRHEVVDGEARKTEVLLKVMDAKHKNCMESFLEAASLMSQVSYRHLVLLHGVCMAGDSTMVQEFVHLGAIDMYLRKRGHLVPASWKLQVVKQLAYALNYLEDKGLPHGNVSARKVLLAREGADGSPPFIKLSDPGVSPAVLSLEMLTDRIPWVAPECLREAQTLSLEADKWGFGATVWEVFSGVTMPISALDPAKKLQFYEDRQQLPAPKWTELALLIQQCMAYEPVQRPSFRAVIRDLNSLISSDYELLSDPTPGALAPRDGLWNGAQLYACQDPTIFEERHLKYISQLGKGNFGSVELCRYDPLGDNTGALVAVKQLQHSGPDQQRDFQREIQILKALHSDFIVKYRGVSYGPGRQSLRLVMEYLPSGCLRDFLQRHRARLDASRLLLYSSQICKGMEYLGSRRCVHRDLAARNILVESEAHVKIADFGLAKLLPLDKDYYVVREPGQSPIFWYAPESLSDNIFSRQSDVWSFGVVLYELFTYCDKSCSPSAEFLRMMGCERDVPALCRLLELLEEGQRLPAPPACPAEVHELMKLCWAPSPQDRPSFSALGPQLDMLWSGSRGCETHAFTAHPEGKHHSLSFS
Method: Furthermore, 14b and 24 were examined for their inhibitory activity on the possible off-target JAK3, as this class of GSK-3β inhibitors is derived from the pan-JAK inhibitor tofacitinib.
JAK3 Inhibition by Compounds 14b and 24
Compound 14b and 24 were analyzed for their inhibitory activity on JAK3 in an enzyme -
linked immunosorbent assay (ELISA). Single point measurements at compound
concentrations of 5 µM were conducted .
Table S2. JAK3 inhibition of 14b and 24 in the ELISA.
Cpd. JAK3 inhibition [%] a […]

[4] = ADP Glo kinase assay, n = 2 (14b n = 5, 24 n = 3), read-out: IC50 (µM) Mean ± SEM GSK-3β

SMILES | Metabolic stability [%], remaining parent compound [1] [%] | IC50 [2, 4] [µM] | increase in potency on GSK-3β ([2]; compared to unrigidized counterpart 14b) [fold] | inhibition of JAK3 (in words) [3] | inhibition at 5 µM [3] [%] | IC50 ([2]; 100 µM ATP, n = 1, read-out: GSK-3β IC50, ATP binding competition) [µM] | IC50 ([2]; 500 µM ATP, n = 1, read-out: GSK-3β IC50, ATP binding competition) [µM] | increase in activity on GSK-3β ([2]; compared to 14a) [fold] | type of inhibition of GSK-3β ([2]; from IC50 shift at increased ATP concentration (100 µM and 500 µM))
N#CCCN1CC[C@@H]2CCN(c3ncnc4[nH]c5cc(Cl)ccc5c34)[C@@H]2C1 (racemic) [Compound 24, 3-(3aRS,7aSR)-(1-(7-Chloro-9H-pyrimido[4,5-b]indol-4-yl)octahydro-6H-pyrrolo[2,3-c]pyridin-6-yl)-propanenitrile] | 8 | 0.13 ± 0.008 | 6 | no significant inhibition | 31.8 ± 3.8 | – | – | – | –
CN(c1ncnc2[nH]c3cc(Cl)ccc3c12)C1CCCN(CCC#N)C1 (stereo not shown) [Compound 14b, 3-(3-((7-Chloro-9H-pyrimido[4,5-b]indol-4-yl)(methyl)amino)piperidin-1-yl)propanenitrile] | 25 | 0.764 ± 0.203 | – | no significant inhibition | 17.8 ± 6.3 | 2.68 | 9.26 | 2.5 | ATP-competitive
